Measurements from ChEMBL document CHEMBL1158666, “Carmabins A and B, new lipopeptides from the Caribbean cyanobacterium Lyngbya majuscula” (J Nat Prod, 1998).
Activity calls are given as the source filed them. The calls are words filed in the database; no cut-off is given here. Square brackets hold non-standard residues; d marks the D form. Peptide text beside a SMILES is read from it. * marks the point of attachment. NMeY = CN[C@@H](Cc1ccc(O)cc1)C(=O)O; NMeF = CN[C@@H](Cc1ccccc1)C(=O)O; X2 = CC(=O)CCCCC(C)CC(C)C(=O)*; X1 = C#CCCCCC(C)CC(C)C(=O)*; NMeA = CN[C@@H](C)C(=O)O

System: NCI60
Experiment: Cytotoxicity against human NCI60 cells
Assay type: functional, cell-based

Structure (SMILES) | Activity
C#CCCCCC(C)CC(C)C(=O)N(C)[C@@H](Cc1ccccc1)C(=O)N[C@@H](C)C(=O)N(C)[C@@H](C)C(=O)N(C)[C@@H](Cc1ccc(OC)cc1)C(N)=O (some centres not stated) (X1-[NMeF]A[NMeA][NMeY](Me)-NH2) | inactive
COc1ccc(C[C@@H](C(N)=O)N(C)C(=O)[C@H](C)N(C)C(=O)[C@H](C)NC(=O)[C@H](Cc2ccccc2)N(C)C(=O)C(C)CC(C)CCCCC(C)=O)cc1 (some centres not stated) (X2-[NMeF]A[NMeA][NMeY](Me)-NH2) | inactive
